The text below walks through data of patent publication US20110195900A1, “PEPTIDIC PTH RECEPTOR AGONISTS” (FERRING B.V., priority 2008, published 2011).

Non-standard residues stand in square brackets, D forms with d. Residues, ends and D or L forms follow the SMILES beside them. No end group written: not given here. 1Nal = N[C@@H](Cc1cccc2ccccc12)C(=O)O; 2Nal = N[C@@H](Cc1ccc2ccccc2c1)C(=O)O; β3hI = CC[C@H](C)[C@H](N)CC(=O)O; β3hR = N=C(N)NCCC[C@H](N)CC(=O)O; Nle = CCCC[C@H](N)C(=O)O; β3hA = C[C@H](N)CC(=O)O; Aib = CC(C)(N)C(=O)O; βAla = NCCC(=O)O

The target of test [1] is T1, human PTH-1 receptor (Homo sapiens, UniProt Q03431).
T1 construct: expressed in transfected cells; host or cells: HEK-293
T1 sequence (Q03431 27-593): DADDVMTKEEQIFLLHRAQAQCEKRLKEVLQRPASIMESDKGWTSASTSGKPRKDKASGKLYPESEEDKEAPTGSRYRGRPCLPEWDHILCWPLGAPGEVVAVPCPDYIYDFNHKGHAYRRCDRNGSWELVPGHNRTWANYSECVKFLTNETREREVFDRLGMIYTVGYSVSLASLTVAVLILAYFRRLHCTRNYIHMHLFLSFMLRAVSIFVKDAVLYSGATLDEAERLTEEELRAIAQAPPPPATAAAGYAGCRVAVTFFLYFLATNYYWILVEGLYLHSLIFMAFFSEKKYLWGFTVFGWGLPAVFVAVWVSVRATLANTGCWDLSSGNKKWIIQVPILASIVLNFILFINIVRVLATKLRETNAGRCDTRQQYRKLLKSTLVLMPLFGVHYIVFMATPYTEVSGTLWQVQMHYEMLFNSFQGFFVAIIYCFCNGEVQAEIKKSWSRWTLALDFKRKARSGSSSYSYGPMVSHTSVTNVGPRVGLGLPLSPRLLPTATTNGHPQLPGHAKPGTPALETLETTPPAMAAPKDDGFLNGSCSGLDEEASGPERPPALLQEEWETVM
As to the kind of experiment: Reporter gene assay (CRE-luciferase) for agonist activity in transiently transfected HEK-293 cells. Particulars: for hPTHR-2/hPTHR-1: Table 3, selectivity for hPTH-1 receptor over hPTH-2 receptor; for hPTHR-2/hPTHR-1 / Selectivity hPTHR-2/hPTHR-1: ratio of EC50 values; for Selectivity hPTHR-2/hPTHR-1: Table 4 comparison data. Format: cell-based. In a few lines: (§1)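 HEK-293 cells transiently transfected with SV40-driven human PTH-1 receptor and CRE-luciferase reporter, exposed to serial compound dilutions for 4-5 h, then lysed for luciferase readout; efficacy and EC50 by non-linear regression, PTH (1-34) as internal control, n≥3. Selectivity measured in analogous human PTH-2 receptor luciferase reporter assays.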

Test [2] addresses T2, human PTH-2 receptor (Homo sapiens, UniProt P49190).
T2 construct: expressed in transfected cells
As to the kind of experiment: Luciferase-based transcriptional reporter gene assay for selectivity. Type of test: cell-based. Summed up:
as §1

For test [3], the target named is human parathyroid hormone receptor 1 (human, UniProt Q03431). As to the kind of experiment: cell-based or functional assay.
Test [4] deals with human parathyroid hormone receptor 2 (human, UniProt P49190). The test is described as follows: cell-based or functional assay.

T2 sequence (P49190 25-550): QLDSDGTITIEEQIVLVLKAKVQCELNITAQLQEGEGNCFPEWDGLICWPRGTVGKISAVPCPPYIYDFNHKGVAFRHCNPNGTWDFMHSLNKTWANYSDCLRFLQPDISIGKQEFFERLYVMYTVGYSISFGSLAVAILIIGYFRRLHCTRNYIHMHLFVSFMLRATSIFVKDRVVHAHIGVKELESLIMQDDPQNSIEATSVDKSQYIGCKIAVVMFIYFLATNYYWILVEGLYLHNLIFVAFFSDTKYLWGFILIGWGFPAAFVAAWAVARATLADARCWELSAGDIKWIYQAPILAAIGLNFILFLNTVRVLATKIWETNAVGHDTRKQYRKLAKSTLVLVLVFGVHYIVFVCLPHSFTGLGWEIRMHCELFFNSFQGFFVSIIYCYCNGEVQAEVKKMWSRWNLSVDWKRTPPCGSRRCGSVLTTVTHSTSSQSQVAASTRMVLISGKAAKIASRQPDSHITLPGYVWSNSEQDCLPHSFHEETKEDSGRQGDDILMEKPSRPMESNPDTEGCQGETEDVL

On to `CCCC[C@H](NC(=O)[C@H](CC(C)C)NC(=O)[C@H](CCC(N)=O)NC(=O)[C@@H](NC(=O)[C@H](CCC(=O)O)NC(=O)[C@H](CO)NC(=O)[C@@H](NC(=O)[C@@H](N)CO)C(C)C)[C@@H](C)CC)C(=O)N[C@@H](Cc1c[nH]cn1)C(=O)N[C@@H](CC(N)=O)C(=O)N[C@@H](CC(C)C)C(=O)NCC(=O)N[C@@H](CCCCN)C(=O)N[C@@H](Cc1c[nH]cn1)C(=O)N[C@@H](CC(C)C)C(=O)N[C@@H](CC(N)=O)C(=O)N[C@@H](CO)C(=O)N[C@@H](C)CC(=O)N[C@@H](CCC(=O)O)C(=O)N[C@@H](CCCNC(=N)N)C(=O)N[C@H](C(=O)N[C@@H](CCC(=O)O)C(=O)N[C@@H](Cc1cccc2ccccc12)C(=O)N[C@@H](CC(C)C)C(=O)N[C@@H](CCCNC(=N)N)C(=O)N[C@@H](CCCCN)C(=O)N[C@@H](CC(C)C)C(=O)N[C@@H](CC(C)C)C(=O)N[C@@H](CCC(N)=O)C(=O)N[C@@H](CC(=O)O)C(=O)N[C@H](C(=O)N[C@@H](Cc1c[nH]cn1)C(=O)N[C@@H](CC(N)=O)C(=O)N[C@@H](Cc1ccccc1)C(N)=O)C(C)C)C(C)C` [SEQ ID NO: 18, [Nle^8, β-hAla^18,1-Nal^23, Leu^27] hPTH (1-34)-NH2] (H-SVSEIQL[Nle]HNLGKHLNS[β3hA]ERVE[1Nal]LRKLLQDVHNF-NH2), for which, in test [1], the EC50 turned out to be 0.22 nM, the hPTHR-2/hPTHR-1 stood at 281 and the “Selectivity hPTHR-2/hPTHR-1” value came to 281. A half-maximal effect in test [2] (EC50) was put at 61 nM.
Consider `CCCC[C@H](NC(=O)[C@H](CC(C)C)NC(=O)[C@H](CCC(N)=O)NC(=O)[C@@H](NC(=O)[C@H](CCC(=O)O)NC(=O)[C@H](CO)NC(=O)[C@@H](NC(=O)[C@@H](N)CO)C(C)C)[C@@H](C)CC)C(=O)N[C@@H](Cc1c[nH]cn1)C(=O)N[C@@H](CC(N)=O)C(=O)N[C@@H](CC(C)C)C(=O)NCC(=O)N[C@@H](CCCCN)C(=O)N[C@@H](Cc1c[nH]cn1)C(=O)N[C@@H](CC(C)C)C(=O)N[C@@H](CC(N)=O)C(=O)N[C@@H](CO)C(=O)N[C@H](CC(=O)N[C@@H](CCC(=O)O)C(=O)N[C@@H](CCCNC(=N)N)C(=O)N[C@H](C(=O)N[C@@H](CCC(=O)O)C(=O)N[C@@H](Cc1cccc2ccccc12)C(=O)N[C@@H](CC(C)C)C(=O)N[C@@H](CCCNC(=N)N)C(=O)N[C@@H](CCCCN)C(=O)N[C@@H](CC(C)C)C(=O)N[C@@H](CC(C)C)C(=O)N[C@@H](CCC(N)=O)C(=O)N[C@@H](CC(=O)O)C(=O)N[C@H](C(=O)N[C@@H](Cc1c[nH]cn1)C(=O)N[C@@H](CCCCN)C(=O)N[C@@H](Cc1ccccc1)C(N)=O)C(C)C)C(C)C)[C@@H](C)CC` [SEQ ID NO: 28, [Nle^8, β-hIle^18,1-Nal^23, Leu^27, Lys^33] hPTH (1-34)-NH2] (H-SVSEIQL[Nle]HNLGKHLNS[β3hI]ERVE[1Nal]LRKLLQDVHKF-NH2), for which the hPTHR-2/hPTHR-1 in test [1] stood at 209. This molecule also showed an EC50 in test [2] of 32 nM.
With `CCCC[C@H](NC(=O)CCNC(=O)[C@H](CC(N)=O)NC(=O)[C@H](CC(C)C)NC(=O)[C@H](Cc1c[nH]cn1)NC(=O)[C@H](CCCCN)NC(=O)CNC(=O)[C@H](CC(C)C)NC(=O)[C@H](CC(N)=O)NC(=O)[C@H](Cc1c[nH]cn1)NC(=O)[C@H](CCCC)NC(=O)[C@H](CC(C)C)NC(=O)[C@H](CCC(N)=O)NC(=O)[C@@H](NC(=O)[C@H](CCC(=O)O)NC(=O)[C@H](CO)NC(=O)[C@@H](NC(=O)C(C)(C)N)C(C)C)[C@@H](C)CC)C(=O)N[C@@H](CCC(=O)O)C(=O)N[C@@H](CCCNC(=N)N)C(=O)N[C@H](C(=O)N[C@@H](CCC(=O)O)C(=O)N[C@@H](Cc1cccc2ccccc12)C(=O)N[C@@H](CC(C)C)C(=O)N[C@@H](CCCNC(=N)N)C(=O)N[C@@H](CCCCN)C(=O)N[C@@H](CC(C)C)C(=O)N[C@@H](CC(C)C)C(=O)N[C@@H](CCC(N)=O)C(=O)N[C@@H](CC(=O)O)C(=O)N[C@H](C(=O)N[C@@H](Cc1c[nH]cn1)C(=O)N[C@@H](CC(N)=O)C(=O)N[C@@H](Cc1ccccc1)C(N)=O)C(C)C)C(C)C` [SEQ ID NO: 2, [Aib^1, Nle^8,18, β-Ala^17,1-Nal^23, Leu^27] hPTH (1-34)-NH2] (H-[Aib]VSEIQL[Nle]HNLGKHLN[βAla][Nle]ERVE[1Nal]LRKLLQDVHNF-NH2), in test [1], the half-maximal effective concentration (EC50) amounted to 0.06 nM, the hPTHR-2/hPTHR-1 was found to be 566 and the “Selectivity hPTHR-2/hPTHR-1” value stood at 566. Besides, the concentration giving a half-maximal response (EC50) in test [2] turned out to be 31 nM.

B1: [Nle^8, β-hArg^18, 2-Nal^23] hPTH (1-34)-NH2 (peptide)
peptide: SVSEIQL[Nle]HNLGKHLNS[β3hR]ERVE[2Nal]LRKKLQDVHNF-NH2
modifications: N-terminus assumed
SMILES: CCCC[C@H](NC(=O)[C@H](CC(C)C)NC(=O)[C@H](CCC(N)=O)NC(=O)[C@@H](NC(=O)[C@H](CCC(=O)O)NC(=O)[C@H](CO)NC(=O)[C@@H](NC(=O)[C@@H](N)CO)C(C)C)[C@@H](C)CC)C(=O)N[C@@H](Cc1c[nH]cn1)C(=O)N[C@@H](CC(N)=O)C(=O)N[C@@H](CC(C)C)C(=O)NCC(=O)N[C@@H](CCCCN)C(=O)N[C@@H](Cc1c[nH]cn1)C(=O)N[C@@H](CC(C)C)C(=O)N[C@@H](CC(N)=O)C(=O)N[C@@H](CO)C(=O)N[C@@H](CCCNC(=N)N)CC(=O)N[C@@H](CCC(=O)O)C(=O)N[C@@H](CCCNC(=N)N)C(=O)N[C@H](C(=O)N[C@@H](CCC(=O)O)C(=O)N[C@@H](Cc1ccc2ccccc2c1)C(=O)N[C@@H](CC(C)C)C(=O)N[C@@H](CCCNC(=N)N)C(=O)N[C@@H](CCCCN)C(=O)N[C@@H](CCCCN)C(=O)N[C@@H](CC(C)C)C(=O)N[C@@H](CCC(N)=O)C(=O)N[C@@H](CC(=O)O)C(=O)N[C@H](C(=O)N[C@@H](Cc1c[nH]cn1)C(=O)N[C@@H](CC(N)=O)C(=O)N[C@@H](Cc1ccccc1)C(N)=O)C(C)C)C(C)C
B1: the “hPTHR-1 EC50 (nM), CRE-luciferase reporter gene assay” value (from here on “hPTHR-1 EC50 (nM)”) in test [3] was determined as 0.24 nM. Also, the “hPTHR-2 EC50 (nM), luciferase reporter gene assay” value (from here on “hPTHR-2 EC50 (nM)”) in test [4] turned out to be 36 nM.

B2: [Nle^8, β-hIle^18, 2-Nal^23] hPTH (1-34)-NH2 (peptide)
peptide: SVSEIQL[Nle]HNLGKHLNS[β3hI]ERVE[2Nal]LRKKLQDVHNF-NH2
modifications: N-terminus assumed
SMILES: CCCC[C@H](NC(=O)[C@H](CC(C)C)NC(=O)[C@H](CCC(N)=O)NC(=O)[C@@H](NC(=O)[C@H](CCC(=O)O)NC(=O)[C@H](CO)NC(=O)[C@@H](NC(=O)[C@@H](N)CO)C(C)C)[C@@H](C)CC)C(=O)N[C@@H](Cc1c[nH]cn1)C(=O)N[C@@H](CC(N)=O)C(=O)N[C@@H](CC(C)C)C(=O)NCC(=O)N[C@@H](CCCCN)C(=O)N[C@@H](Cc1c[nH]cn1)C(=O)N[C@@H](CC(C)C)C(=O)N[C@@H](CC(N)=O)C(=O)N[C@@H](CO)C(=O)N[C@H](CC(=O)N[C@@H](CCC(=O)O)C(=O)N[C@@H](CCCNC(=N)N)C(=O)N[C@H](C(=O)N[C@@H](CCC(=O)O)C(=O)N[C@@H](Cc1ccc2ccccc2c1)C(=O)N[C@@H](CC(C)C)C(=O)N[C@@H](CCCNC(=N)N)C(=O)N[C@@H](CCCCN)C(=O)N[C@@H](CCCCN)C(=O)N[C@@H](CC(C)C)C(=O)N[C@@H](CCC(N)=O)C(=O)N[C@@H](CC(=O)O)C(=O)N[C@H](C(=O)N[C@@H](Cc1c[nH]cn1)C(=O)N[C@@H](CC(N)=O)C(=O)N[C@@H](Cc1ccccc1)C(N)=O)C(C)C)C(C)C)[C@@H](C)CC
Regarding B2, the “hPTHR-1 EC50 (nM)” value in test [3] is 0.25 nM. In test [4], the “hPTHR-2 EC50 (nM)” value worked out at 42 nM.

B3: [Nle^8, β-hAla^18, 2-Nal^23] hPTH (1-34)-NH2 (peptide)
peptide: SVSEIQL[Nle]HNLGKHLNS[β3hA]ERVE[2Nal]LRKKLQDVHNF-NH2
modifications: N-terminus assumed
SMILES: CCCC[C@H](NC(=O)[C@H](CC(C)C)NC(=O)[C@H](CCC(N)=O)NC(=O)[C@@H](NC(=O)[C@H](CCC(=O)O)NC(=O)[C@H](CO)NC(=O)[C@@H](NC(=O)[C@@H](N)CO)C(C)C)[C@@H](C)CC)C(=O)N[C@@H](Cc1c[nH]cn1)C(=O)N[C@@H](CC(N)=O)C(=O)N[C@@H](CC(C)C)C(=O)NCC(=O)N[C@@H](CCCCN)C(=O)N[C@@H](Cc1c[nH]cn1)C(=O)N[C@@H](CC(C)C)C(=O)N[C@@H](CC(N)=O)C(=O)N[C@@H](CO)C(=O)N[C@@H](C)CC(=O)N[C@@H](CCC(=O)O)C(=O)N[C@@H](CCCNC(=N)N)C(=O)N[C@H](C(=O)N[C@@H](CCC(=O)O)C(=O)N[C@@H](Cc1ccc2ccccc2c1)C(=O)N[C@@H](CC(C)C)C(=O)N[C@@H](CCCNC(=N)N)C(=O)N[C@@H](CCCCN)C(=O)N[C@@H](CCCCN)C(=O)N[C@@H](CC(C)C)C(=O)N[C@@H](CCC(N)=O)C(=O)N[C@@H](CC(=O)O)C(=O)N[C@H](C(=O)N[C@@H](Cc1c[nH]cn1)C(=O)N[C@@H](CC(N)=O)C(=O)N[C@@H](Cc1ccccc1)C(N)=O)C(C)C)C(C)C
As to B3, the “hPTHR-1 EC50 (nM)” value in test [3] stood at 0.34 nM. In addition, in test [4], the “hPTHR-2 EC50 (nM)” value stood at 73 nM.
